Target: luciferase (Photinus pyralis, UniProt P08659)
Assay: ATP-luciferin-luciferase assay (light intensity, luminometer)
Format: biochemical, firefly
Details: for effect on light intensity: diluted concentrations compared with the positively charged extractant, 5; for neutralizing the inhibitory effect(s) of commonly employed extractants on the ATP-luciferin-luciferase light reaction: overall conclusion, SDS at the proper concentrations
Procedure: ATP-luciferin-luciferase assays were conducted to determine the effect of the following on assay activity: (1) Tween® 20 (2% Tween® 20 in 50 mM tricene buffer, pH 6.75), (2) MgSO4 (0.229 g/L in 50 mM tricene buffer, pH 7.46), (3) SDS (0.268 g/L in 50 mM tricene buffer, pH 7.61) and (4) a combination of MgSO4 and various amounts of Tween®. Each of these substances were assayed alone and in the presence of a commonly used positively charged ATP extractant, i.e., benzalkonium chloride (0.3325 g/L). Many of the assays were conducted in the presence of the following sanitizers: Ster-Bac® (1 oz/4 gal); Ster-Bac® (2.5 ml/L); XY-12 (200 ppm); XY-12 (600 ppm); Simplex Quat (1 oz/gal); Kleer-Mor® (1 oz/2 gal); and Kleer-Mor® (4 oz/2 gal). The MgSO4 and SDS assays were conducted using molar concentrations of MgSO4 and SDS equal to that of the positively charged extractant, as well as using molar concentrations of MgSO4 and SDS diluted as compared to that of the positively charged extractant.
Depending on the substance being tested, sanitizer, neutralizer (i.e., Tween® 20, MgSO4 or SDS), ATP solution, luciferin/luciferase cocktail, extractant and/or benzalkonium chloride (in various combinations) were placed in a cuvette and light intensity was read. Each sanitizer was run in duplicate. A control tube containing buffer and ATP was also run. Light output was measured in a Monolight 3010 luminometer. Each experiment was conducted in total volume of 0.42 ml in the curvette.

luciferase, sequence (P08659 whole entry, species assumed): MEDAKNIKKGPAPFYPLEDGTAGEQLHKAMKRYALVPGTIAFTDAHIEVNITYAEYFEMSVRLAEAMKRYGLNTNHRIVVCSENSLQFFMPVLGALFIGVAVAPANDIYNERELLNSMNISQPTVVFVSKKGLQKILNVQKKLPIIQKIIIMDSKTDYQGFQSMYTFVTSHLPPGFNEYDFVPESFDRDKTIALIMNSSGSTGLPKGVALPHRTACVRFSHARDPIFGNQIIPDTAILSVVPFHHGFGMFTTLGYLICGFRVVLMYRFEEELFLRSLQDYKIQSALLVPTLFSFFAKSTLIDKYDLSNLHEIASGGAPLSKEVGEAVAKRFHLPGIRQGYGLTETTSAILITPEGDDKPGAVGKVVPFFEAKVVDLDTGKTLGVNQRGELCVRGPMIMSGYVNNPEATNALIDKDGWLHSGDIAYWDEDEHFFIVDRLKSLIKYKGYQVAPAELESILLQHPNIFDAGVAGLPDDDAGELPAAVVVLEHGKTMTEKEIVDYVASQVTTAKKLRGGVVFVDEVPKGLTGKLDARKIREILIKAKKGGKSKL

SMILES	effect on light intensity (FIGS. 4A-4C)	performance as neutralizer compared with SDS (intensity of light) (equal concentrations of neutralizer and extractant, with sanitizer, with extractant and alone, FIG. 3)	performance as neutralizer compared with Tween 20 (intensity of light) (equal concentrations of neutralizer and positively charged extractant (benzalkonium chloride), various sanitizers, FIGS. 1 and 2)	neutralizing the effects of sanitizer (extractant, sanitizer and ATP-luciferin-luciferase solution, FIGS. 6A, 6B)	neutralizing the inhibitory effect(s) of commonly employed extractants on the ATP-luciferin-luciferase light reaction	neutralizing the inhibitory effects of benzalkonium chloride (diluted 1:2 or more compared with the extractant, FIGS. 4A-4C)	effect on the light reaction (equal concentrations of neutralizer and positively charged extractant, FIG. 3)	effect on the light reaction at too high a concentration (present at too high a concentration)
O=S(=O)([O-])[O-].[Mg+2] [MgSO4, magnesium sulfate]	increased light intensity over the undiluted MgSO4	performed better than SDS in all assays	performed better than Tween® 20 as a neutralizer for all sanitizers except one	works at least as well and, in most cases, better than Tween® 20	more effective than Tween® 20			
CCCCCCCCCCCCOS(=O)(=O)[O-].[Na+] [SDS, sodium dodecyl sulfate]	did not affect (inhibit) light intensity				neutralizes the inhibitory effect(s)	effective in neutralizing the inhibitory effects of benzalkonium chloride	not effective and inhibited the light reaction	completely eliminate the light reaction

From US20050181467A1, “ATP extraction method” (priority 2000, published 2005)
